In US8765791B2, “Method of treating cancer using a neuropeptide Y 5R (NP Y5R) antagonist” (University Health Network, priority 2008, dated 2014):

Tests used:
[1] = system: Breast cancer cells, MDA MB 468; experiment: breast cancer xenograft model (Example 11); assay type: in vivo, SCID mice; settings: 10 mg/kg i.p. 3/week, approximately 4 weeks
Procedure: Breast cancer cells, MDA MB 468 (12 million), were injected subcutaneously (s.c.) on the neck of SCID mice (CB17, female, 4-6 weeks old) (Charles River, Wilmington, Mass.). The mice were divided into four groups, 5 mice for each group. The treatments were started when the tumor volume reached about 100 mm^3, day 22 after tumor implantation. […] The tumor sizes were monitored every 3 or 4 days. […] (FIG. 12)

[2] = system: Breast cancer cells, MDA MB 468; experiment: breast cancer xenograft model, MK0557 and 5-FU (Example 15); assay type: in vivo, CB17-SCID; settings: 5-FU alone, 30 mg/kg ip q.d.×5 days
Procedure: Breast cancer cells, MDA MB 468, were injected into CB17-SCID. The treatments were started day 14 after tumor implantation. […] Tumor volume and tumor growth were monitored during the experiment.

[3] = system: Hodgkin Lymphoma cells, HD-MYZ; experiment: Hodgkin's lymphoma xenograft model, MK-0557 and 200464 (Example 16); assay type: in vivo; settings: for inhibition rate (tumor volume) / inhibition rate (tumor weight): versus vehicle
Source text: Hodgkin lymphoma cells, HD-MYZ, were implanted in NOD-SCID mice, female, 4-6 weeks from Jackson's Laboratory (Maine). The treatments were started day 6 after tumor implantation. The mice were divided to six groups, 4-5 mice from each group. The treatment started with a tumor volume of about 70 mm3 after tumor implantation.

[4] = system: Hodgkin Lymphoma cells, HD-MYZ; experiment: Hodgkin lymphoma xenograft model (Example 12); assay type: in vivo, NOD-SCID mice; settings: 5 mg/kg i.p. 1/week, approximately 2 weeks
Source text: Hodgkin lymphoma cells, HD-MYZ (1 million), were implanted s.c. on the right flank of NOD-SCID mice (Cat#001303, female, 4-6 weeks from Jackson laboratories, Bar Harbor, Me.). The mice were divided into four groups, 5 mice for each group. […] The tumor growth was monitored during the experiment. […] (FIG. 13)

[5] = system: Hodgkin Lymphoma cells, HD-MYZ; experiment: Hodgkin lymphoma xenograft model, MK0557 vs AVASTIN (Example 14); assay type: in vivo, NOD-SCID mice; settings: 5 mg/kg i.p. 1/week×3 weeks
Source text: Hodgkin lymphoma cells, HD-MYZ, were implanted in NOD-SCID mice. […] Tumor volume and tumor growth were monitored during the experiment.

[6] = group 2: 200464 20 mg/kg i.p. 3 times for each week
[7] = group 3: 200464 40 mg/kg i.p. 3 times for each week

## O=c1[nH]cc(F)c(=O)[nH]1 [5-FU, 5-fluorouracil]
[1]
  tumor growth: inhibited tumor growth
[2]
  Mean Tumor Volume: 434.44±56.63 mm^3
  Mean Tumor Weight: 0.1892 ± 0.026 g
[2]; versus vehicle
  inhibition rate (tumor volume): 32.35%
  inhibition rate (tumor weight): 26.55%

## CC[C@@H]1C(=O)N(C)c2cnc(Nc3ccc(C(=O)NC4CCN(C)CC4)cc3OC)nc2N1C1CCCC1 [compound 200464]
[3]; [6]
  Mean Tumor Volume: 754.55+/−158.32 mm^3
  Mean Tumor Weight: 0.8788 ± 0.2674 g
  inhibition rate (tumor volume): 62.26%
  inhibition rate (tumor weight): 5.42%
[3]; [7]
  Mean Tumor Volume: 565.75+/−176.13 mm^3
  Mean Tumor Weight: 0.5472 ± 0.2097 g
  inhibition rate (tumor volume): 49.66%
  inhibition rate (tumor weight): 41.11%
[3]; mouse, in vivo
  tolerability of the doses by the mice: well tolerated

## bevacizumab [AVASTIN®]
[4]
  tumor growth: inhibited tumor growth
[5]
  Mean Tumor Volume: 672.53±85.56 mm^3
  Mean Tumor Weight: 0.33 ± 0.03 g
[5]; versus vehicle
  inhibition rate (tumor volume): 74.14%
  inhibition rate (tumor weight): 86.96%
